Molecular target: Sodium channel protein type 10 subunit alpha (Homo sapiens, UniProt Q9Y5Y9)
Assay: Pharmacological Assay
Source text: Utilizing the voltage-clamp mode in the QPatch 48 HTX system a half inactivation state voltage protocol (V1/2) was used to determine pharmacological activity of compounds of the invention at Nav1.8 ion channels. A V1/2 protocol was utilized with the following voltage steps: a holding voltage of −100 mV was established followed by a 20 ms voltage step to 0 mV (P1), followed by an inactivating voltage step at −46 mV for 8 seconds, followed by a step to −100 mV for 20 ms, before a 20 ms step to 0 mV (P2), then returned to the holding voltage of −100 mV. This voltage protocol was repeated at a frequency of every 15 seconds, the current magnitude was quantified at the P2 step throughout the recording. Inhibition of the measured current amplitude with compounds of the invention was analyzed by fitting a 4-6 points dose-response curve allowing determination of the fifty percent inhibition concentration (IC50). P2 currents were normalized according to measurements made at baseline (Baseline, vehicle only), after compound (Input, at each test concentration), and after positive reference compound (FullResponse, to achieve complete block), fit to the following equation:n.ICPD=NormalizedCurrent=(Input-Baseline)(FullResponse-Baseline)[1570]To assess current run-down over the course of the experiment vehicle-only wells were utilized and the normalized current with vehicle-only (n.IVEH) was determined. To correct the compound response for run-down, the currents were corrected according to the following formula:n.IRD_Correct=(n.ICPD-n.IVEH)(1-n.IVEH)

Sequence of Sodium channel protein type 10 subunit alpha (Q9Y5Y9 whole entry): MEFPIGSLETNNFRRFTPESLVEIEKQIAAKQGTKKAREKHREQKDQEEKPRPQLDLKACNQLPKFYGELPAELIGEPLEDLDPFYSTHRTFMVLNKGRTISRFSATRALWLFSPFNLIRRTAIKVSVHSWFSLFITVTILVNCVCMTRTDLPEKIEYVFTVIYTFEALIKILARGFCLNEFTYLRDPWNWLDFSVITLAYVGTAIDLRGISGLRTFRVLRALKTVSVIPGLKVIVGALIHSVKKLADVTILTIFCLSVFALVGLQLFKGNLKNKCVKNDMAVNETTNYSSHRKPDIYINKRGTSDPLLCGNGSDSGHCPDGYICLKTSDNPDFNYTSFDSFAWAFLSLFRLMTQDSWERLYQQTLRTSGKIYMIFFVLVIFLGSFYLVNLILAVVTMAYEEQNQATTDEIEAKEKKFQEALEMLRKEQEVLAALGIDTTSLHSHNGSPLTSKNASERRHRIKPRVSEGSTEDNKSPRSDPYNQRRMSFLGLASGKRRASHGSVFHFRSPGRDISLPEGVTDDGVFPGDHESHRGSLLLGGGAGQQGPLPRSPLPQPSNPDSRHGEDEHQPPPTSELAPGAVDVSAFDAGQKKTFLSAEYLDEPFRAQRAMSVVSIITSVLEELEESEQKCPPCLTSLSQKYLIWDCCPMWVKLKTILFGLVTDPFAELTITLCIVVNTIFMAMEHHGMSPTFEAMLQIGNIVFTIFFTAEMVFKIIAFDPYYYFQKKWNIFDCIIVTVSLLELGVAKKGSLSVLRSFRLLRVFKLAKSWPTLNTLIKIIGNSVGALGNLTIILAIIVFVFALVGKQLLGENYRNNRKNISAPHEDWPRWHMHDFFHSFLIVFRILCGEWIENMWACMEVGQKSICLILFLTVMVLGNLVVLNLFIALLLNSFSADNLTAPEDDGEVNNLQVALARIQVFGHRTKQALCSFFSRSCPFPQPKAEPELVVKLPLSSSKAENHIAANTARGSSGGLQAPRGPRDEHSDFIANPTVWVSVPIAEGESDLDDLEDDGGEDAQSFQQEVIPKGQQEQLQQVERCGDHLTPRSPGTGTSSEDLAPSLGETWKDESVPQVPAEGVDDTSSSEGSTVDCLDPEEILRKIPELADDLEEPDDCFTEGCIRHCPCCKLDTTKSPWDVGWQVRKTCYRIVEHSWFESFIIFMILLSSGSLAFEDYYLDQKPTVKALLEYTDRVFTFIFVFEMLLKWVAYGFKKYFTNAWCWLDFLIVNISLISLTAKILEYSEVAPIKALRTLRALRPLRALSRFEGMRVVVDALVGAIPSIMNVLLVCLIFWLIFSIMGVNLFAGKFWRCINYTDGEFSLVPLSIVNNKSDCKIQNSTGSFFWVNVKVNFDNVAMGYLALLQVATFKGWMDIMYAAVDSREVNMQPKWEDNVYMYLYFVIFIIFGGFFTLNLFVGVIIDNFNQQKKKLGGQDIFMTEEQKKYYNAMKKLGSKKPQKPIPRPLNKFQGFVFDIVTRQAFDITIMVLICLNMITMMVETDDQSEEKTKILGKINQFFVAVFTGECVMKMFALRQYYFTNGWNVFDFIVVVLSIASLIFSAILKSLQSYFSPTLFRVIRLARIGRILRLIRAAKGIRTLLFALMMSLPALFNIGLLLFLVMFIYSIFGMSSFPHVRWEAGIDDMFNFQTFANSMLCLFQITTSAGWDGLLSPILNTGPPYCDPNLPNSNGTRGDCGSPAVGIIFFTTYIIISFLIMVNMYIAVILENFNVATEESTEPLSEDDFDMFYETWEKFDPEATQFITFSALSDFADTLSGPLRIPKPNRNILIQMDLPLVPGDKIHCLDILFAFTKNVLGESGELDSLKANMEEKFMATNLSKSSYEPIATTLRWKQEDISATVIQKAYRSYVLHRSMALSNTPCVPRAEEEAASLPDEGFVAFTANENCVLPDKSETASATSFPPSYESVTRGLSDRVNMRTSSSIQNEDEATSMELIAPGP

| SMILES | IC50 |
| --- | --- |
| O=C1c2ccc(C(F)(F)F)cc2N2CN1c1ccc(=O)[nH]c1CCCCCOc1cc(F)ccc12 [US20250368647, Example 19] | 316 nM |
| O=C1c2cc(C(F)(F)F)ccc2N2CN1c1ccc(=O)[nH]c1CCNCc1cc(F)c(F)cc12 [US20250368647, Example 47] | 200 nM |
| O=C1c2cc(F)c(C(F)(F)F)cc2N2CN1c1ccc(=O)[nH]c1CCNCc1cc(OC(F)(F)F)ccc12 [US20250368647, Example 51] | 10 nM |
| O=C1c2cc(F)c(C(F)(F)F)cc2N2CN1c1ccc(=O)[nH]c1CCNCc1c2ccc(OC(F)(F)F)c1F [US20250368647, Example 52] | 3.16 nM |
| O=C1c2cc(OCC(F)(F)F)ccc2N2CN1c1ccc(=O)[nH]c1CCNCc1cc(F)ccc12 [US20250368647, Example 56] | 1260 nM |
| CC1CCNc2[nH]c(=O)ccc2N2CN(c3cc(C(F)(F)F)c(F)cc3C2=O)c2ccc(F)c(F)c21 (stereo unspecified) [US20250368647, Example 131] | 15.8 nM |

Reference: BindingDB's records for patent US20250368647 (Glaxosmithkline Intellectual Property Development, 2025)
